Results: patent US10266537B2, “3-acetylenyl-pyrazole-pyrimidine derivative, and preparation method therefor and uses thereof” (Si Chuan University, priority 2015, dated 2019)

Experiments:
PC-3 = test: Cell proliferation inhibition assay (MTT); type: cell-based; conditions: Homo sapiens, 72 hours, read-out: Proliferation inhibitory activity IC50
Procedure: The cells were seeded in 96-well plates with 200 μL of cell suspension per well and incubated overnight in a cell culture medium with a cell concentration of 1 2×10^4 cells/mL. The next day, the supernatant was discarded (the suspension cell was centrifuged before it) and the cells were treated with gradient concentrations of the test compound, respectively. […] After 72 hours, add 20 μL of MTT reagent at a concentration of 5 mg/mL per well. After incubation for 2-4 h, the supernatant was discarded and 150 μL of DMSO was added to each well. […] Relative cell proliferation inhibition rate=([MUT]-[MUT])×100%/[MUT]. The experiment was repeated at least 3 times. Experimental data were expressed as mean, data statistics using t test, P<0.05 for the difference was statistically significant.

Lck = Lck (Homo sapiens (Human), UniProt P06239); test: Kinase inhibition assay (KinaseProfiler, 33P-ATP); type: biochemical
Pyk2 = Pyk2 (Homo sapiens (Human), UniProt Q14289); test: Kinase inhibition assay (KinaseProfiler, 33P-ATP); type: biochemical; conditions: Pyk2(h), read-out: The percentage of the remaining active protein
Ret = Ret (Homo sapiens (Human), UniProt P07949); test: Kinase inhibition assay (KinaseProfiler, 33P-ATP); type: biochemical
EphA5 = EphA5 (Homo sapiens (Human), UniProt P54756); test: Kinase inhibition assay (KinaseProfiler, 33P-ATP); type: biochemical; conditions: EphA5(h), read-out: The percentage of the remaining active protein
EphA7 = EphA7 (Homo sapiens (Human), UniProt Q15375); test: Kinase inhibition assay (KinaseProfiler, 33P-ATP); type: biochemical; conditions: EphA7(h), read-out: The percentage of the remaining active protein
FGFR3 = FGFR3 (Homo sapiens (Human), UniProt P22607); test: Kinase inhibition assay (KinaseProfiler, 33P-ATP); type: biochemical; conditions: FGFR3(h), read-out: The percentage of the remaining active protein
Rse = Rse (Homo sapiens (Human), UniProt Q06418); test: Kinase inhibition assay (KinaseProfiler, 33P-ATP); type: biochemical; conditions: Rse(h), read-out: The percentage of the remaining active protein
ASK1(h) = ASK1(h) (Homo sapiens (Human), UniProt Q99683); test: Kinase inhibition assay (KinaseProfiler, 33P-ATP); type: biochemical; conditions: read-out: The percentage of the remaining active protein
CDK1/cyclinB(h) = CDK1/cyclinB(h) (Homo sapiens (Human), UniProt P06493); test: Kinase inhibition assay (KinaseProfiler, 33P-ATP); type: biochemical; conditions: read-out: The percentage of the remaining active protein
CDK4/cyclinD3(h) = CDK4/cyclinD3(h) (Homo sapiens (Human), UniProt P11802); test: Kinase inhibition assay (KinaseProfiler, 33P-ATP); type: biochemical; conditions: read-out: The percentage of the remaining active protein
CK1δ(h) = CK1δ(h) (Homo sapiens (Human), UniProt P48730); test: Kinase inhibition assay (KinaseProfiler, 33P-ATP); type: biochemical; conditions: read-out: The percentage of the remaining active protein
cKit(V654A)(h) = cKit(V654A)(h) (Homo sapiens (Human), UniProt P10721, V654A); test: Kinase inhibition assay (KinaseProfiler, 33P-ATP); type: biochemical; conditions: read-out: The percentage of the remaining active protein
HIPK2(h) = HIPK2(h) (Homo sapiens (Human), UniProt Q9H2X6); test: Kinase inhibition assay (KinaseProfiler, 33P-ATP); type: biochemical; conditions: read-out: The percentage of the remaining active protein
IR(h) = IR(h) (Homo sapiens (Human), UniProt P06213); test: Kinase inhibition assay (KinaseProfiler, 33P-ATP); type: biochemical; conditions: read-out: The percentage of the remaining active protein
IR(h), activated = IR(h), activated (Homo sapiens (Human), UniProt P06213); test: Kinase inhibition assay (KinaseProfiler, 33P-ATP); type: biochemical; conditions: read-out: The percentage of the remaining active protein
IRAK4(h) = IRAK4(h) (Homo sapiens (Human), UniProt Q9NWZ3); test: Kinase inhibition assay (KinaseProfiler, 33P-ATP); type: biochemical; conditions: read-out: The percentage of the remaining active protein
JNK2α2(h) = JNK2α2(h) (Homo sapiens (Human), UniProt P45984); test: Kinase inhibition assay (KinaseProfiler, 33P-ATP); type: biochemical; conditions: read-out: The percentage of the remaining active protein
Lck(h) activated = Lck(h) activated (Homo sapiens (Human), UniProt P06239); test: Kinase inhibition assay (KinaseProfiler, 33P-ATP); type: biochemical; conditions: read-out: The percentage of the remaining active protein
Met(M1268T)(h) = Met(M1268T)(h) (Homo sapiens (Human), UniProt P08581, M1268T); test: Kinase inhibition assay (KinaseProfiler, 33P-ATP); type: biochemical; conditions: read-out: The percentage of the remaining active protein
Met(Y1248H)(h) = Met(Y1248H)(h) (Homo sapiens (Human), UniProt P08581, Y1248H); test: Kinase inhibition assay (KinaseProfiler, 33P-ATP); type: biochemical; conditions: read-out: The percentage of the remaining active protein
MSK2(h) = MSK2(h) (Homo sapiens (Human), UniProt O75676); test: Kinase inhibition assay (KinaseProfiler, 33P-ATP); type: biochemical; conditions: read-out: The percentage of the remaining active protein
MSSK1(h) = MSSK1(h) (Homo sapiens (Human), UniProt Q9UPE1); test: Kinase inhibition assay (KinaseProfiler, 33P-ATP); type: biochemical; conditions: read-out: The percentage of the remaining active protein
PEK(h) = PEK(h) (Homo sapiens (Human), UniProt Q9NZJ5); test: Kinase inhibition assay (KinaseProfiler, 33P-ATP); type: biochemical; conditions: read-out: The percentage of the remaining active protein
PKCβII(h) = PKCβII(h) (Homo sapiens (Human), UniProt P05771); test: Kinase inhibition assay (KinaseProfiler, 33P-ATP); type: biochemical; conditions: read-out: The percentage of the remaining active protein
PKCη(h) = PKCη(h) (Homo sapiens (Human), UniProt P24723); test: Kinase inhibition assay (KinaseProfiler, 33P-ATP); type: biochemical; conditions: read-out: The percentage of the remaining active protein
Ret (V804L)(h) = Ret (V804L)(h) (Homo sapiens (Human), UniProt P07949, V804L); test: Kinase inhibition assay (KinaseProfiler, 33P-ATP); type: biochemical; conditions: read-out: The percentage of the remaining active protein
Rsk3(h) = Rsk3(h) (Homo sapiens (Human), UniProt Q15349); test: Kinase inhibition assay (KinaseProfiler, 33P-ATP); type: biochemical; conditions: read-out: The percentage of the remaining active protein
SGK2(h) = SGK2(h) (Homo sapiens (Human), UniProt Q9HBY8); test: Kinase inhibition assay (KinaseProfiler, 33P-ATP); type: biochemical; conditions: read-out: The percentage of the remaining active protein
Snk(h) = Snk(h) (Homo sapiens (Human), UniProt Q9NYY3); test: Kinase inhibition assay (KinaseProfiler, 33P-ATP); type: biochemical; conditions: read-out: The percentage of the remaining active protein
WNK3(h) = WNK3(h) (Homo sapiens (Human), UniProt Q9BYP7); test: Kinase inhibition assay (KinaseProfiler, 33P-ATP); type: biochemical; conditions: read-out: The percentage of the remaining active protein
ATM(h) = ATM(h) (Homo sapiens (Human), UniProt Q13315); test: Kinase inhibition assay (KinaseProfiler, 33P-ATP); type: biochemical; conditions: read-out: The percentage of the remaining active protein
[1] = target: PI3 Kinase (p110a(H1047R)/p85a)(m) (Mus musculus (Mouse), UniProt P42337, H1047R); test: Kinase inhibition assay (KinaseProfiler, 33P-ATP); type: biochemical; conditions: read-out: The percentage of the remaining active protein
[2] = target: PI3 Kinase (p110a(E545K)/p85a)(h) (Homo sapiens (Human), UniProt P42336, E545K); test: Kinase inhibition assay (KinaseProfiler, 33P-ATP); type: biochemical; conditions: read-out: The percentage of the remaining active protein

Chain of Lck (P06239 whole entry): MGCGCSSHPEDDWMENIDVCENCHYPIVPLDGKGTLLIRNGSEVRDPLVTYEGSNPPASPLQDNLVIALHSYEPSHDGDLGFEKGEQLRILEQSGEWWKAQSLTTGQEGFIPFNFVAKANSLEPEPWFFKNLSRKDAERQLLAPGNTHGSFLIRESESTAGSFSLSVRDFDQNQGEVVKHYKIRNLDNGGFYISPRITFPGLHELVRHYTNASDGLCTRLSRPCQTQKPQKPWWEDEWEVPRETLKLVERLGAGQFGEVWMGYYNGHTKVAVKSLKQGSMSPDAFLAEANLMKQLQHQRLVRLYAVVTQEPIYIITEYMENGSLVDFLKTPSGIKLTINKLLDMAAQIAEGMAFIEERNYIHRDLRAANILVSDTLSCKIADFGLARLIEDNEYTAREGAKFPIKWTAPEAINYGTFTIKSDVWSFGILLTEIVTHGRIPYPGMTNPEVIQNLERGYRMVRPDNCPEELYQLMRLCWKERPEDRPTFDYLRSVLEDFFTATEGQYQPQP
Chain of Ret (P07949 29-1114): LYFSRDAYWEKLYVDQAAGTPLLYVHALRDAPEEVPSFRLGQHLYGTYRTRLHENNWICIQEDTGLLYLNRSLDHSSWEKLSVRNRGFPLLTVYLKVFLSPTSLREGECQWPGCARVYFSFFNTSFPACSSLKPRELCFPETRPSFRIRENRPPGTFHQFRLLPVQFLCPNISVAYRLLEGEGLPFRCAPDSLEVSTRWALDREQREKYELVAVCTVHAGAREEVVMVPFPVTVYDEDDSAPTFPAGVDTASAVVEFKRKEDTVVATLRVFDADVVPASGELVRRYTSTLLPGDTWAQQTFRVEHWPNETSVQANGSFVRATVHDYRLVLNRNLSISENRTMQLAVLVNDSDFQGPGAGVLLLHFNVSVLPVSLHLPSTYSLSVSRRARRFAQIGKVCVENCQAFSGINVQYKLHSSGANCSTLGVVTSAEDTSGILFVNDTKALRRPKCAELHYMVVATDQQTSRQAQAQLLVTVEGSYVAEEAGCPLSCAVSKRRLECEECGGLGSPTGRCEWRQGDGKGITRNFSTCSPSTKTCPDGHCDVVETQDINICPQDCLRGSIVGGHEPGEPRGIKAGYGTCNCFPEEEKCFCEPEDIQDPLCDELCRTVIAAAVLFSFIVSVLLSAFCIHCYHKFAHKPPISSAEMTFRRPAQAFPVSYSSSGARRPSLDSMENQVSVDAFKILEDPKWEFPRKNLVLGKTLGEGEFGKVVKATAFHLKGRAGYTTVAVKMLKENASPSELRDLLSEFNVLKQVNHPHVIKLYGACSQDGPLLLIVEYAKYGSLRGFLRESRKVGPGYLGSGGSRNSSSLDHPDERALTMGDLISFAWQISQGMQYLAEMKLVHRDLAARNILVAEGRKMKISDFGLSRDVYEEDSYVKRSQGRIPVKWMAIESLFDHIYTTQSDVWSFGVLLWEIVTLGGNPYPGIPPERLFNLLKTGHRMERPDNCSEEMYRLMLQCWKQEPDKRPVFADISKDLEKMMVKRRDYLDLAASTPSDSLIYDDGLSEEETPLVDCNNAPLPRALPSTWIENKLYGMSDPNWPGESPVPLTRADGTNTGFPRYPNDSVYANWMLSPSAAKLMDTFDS
Chain of Rsk3(h) (Q15349 whole entry): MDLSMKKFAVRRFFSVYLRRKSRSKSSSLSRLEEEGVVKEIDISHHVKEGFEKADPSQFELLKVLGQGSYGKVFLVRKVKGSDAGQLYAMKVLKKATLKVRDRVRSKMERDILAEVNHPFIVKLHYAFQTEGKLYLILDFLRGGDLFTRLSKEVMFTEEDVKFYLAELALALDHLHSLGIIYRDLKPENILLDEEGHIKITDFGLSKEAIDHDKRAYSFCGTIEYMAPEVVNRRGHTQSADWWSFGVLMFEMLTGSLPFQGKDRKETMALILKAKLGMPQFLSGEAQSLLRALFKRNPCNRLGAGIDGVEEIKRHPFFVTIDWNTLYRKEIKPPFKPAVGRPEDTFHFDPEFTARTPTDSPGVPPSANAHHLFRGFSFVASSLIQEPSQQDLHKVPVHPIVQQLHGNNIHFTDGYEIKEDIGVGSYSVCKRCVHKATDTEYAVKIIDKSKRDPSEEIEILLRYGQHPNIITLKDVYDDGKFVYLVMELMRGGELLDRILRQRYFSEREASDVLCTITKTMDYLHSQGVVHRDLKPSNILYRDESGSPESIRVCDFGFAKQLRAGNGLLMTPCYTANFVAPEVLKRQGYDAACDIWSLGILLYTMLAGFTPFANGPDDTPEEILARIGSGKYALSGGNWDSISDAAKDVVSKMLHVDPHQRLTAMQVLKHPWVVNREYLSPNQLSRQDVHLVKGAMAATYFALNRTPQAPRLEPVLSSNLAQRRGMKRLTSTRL
Chain of Pyk2 (Q14289 whole entry): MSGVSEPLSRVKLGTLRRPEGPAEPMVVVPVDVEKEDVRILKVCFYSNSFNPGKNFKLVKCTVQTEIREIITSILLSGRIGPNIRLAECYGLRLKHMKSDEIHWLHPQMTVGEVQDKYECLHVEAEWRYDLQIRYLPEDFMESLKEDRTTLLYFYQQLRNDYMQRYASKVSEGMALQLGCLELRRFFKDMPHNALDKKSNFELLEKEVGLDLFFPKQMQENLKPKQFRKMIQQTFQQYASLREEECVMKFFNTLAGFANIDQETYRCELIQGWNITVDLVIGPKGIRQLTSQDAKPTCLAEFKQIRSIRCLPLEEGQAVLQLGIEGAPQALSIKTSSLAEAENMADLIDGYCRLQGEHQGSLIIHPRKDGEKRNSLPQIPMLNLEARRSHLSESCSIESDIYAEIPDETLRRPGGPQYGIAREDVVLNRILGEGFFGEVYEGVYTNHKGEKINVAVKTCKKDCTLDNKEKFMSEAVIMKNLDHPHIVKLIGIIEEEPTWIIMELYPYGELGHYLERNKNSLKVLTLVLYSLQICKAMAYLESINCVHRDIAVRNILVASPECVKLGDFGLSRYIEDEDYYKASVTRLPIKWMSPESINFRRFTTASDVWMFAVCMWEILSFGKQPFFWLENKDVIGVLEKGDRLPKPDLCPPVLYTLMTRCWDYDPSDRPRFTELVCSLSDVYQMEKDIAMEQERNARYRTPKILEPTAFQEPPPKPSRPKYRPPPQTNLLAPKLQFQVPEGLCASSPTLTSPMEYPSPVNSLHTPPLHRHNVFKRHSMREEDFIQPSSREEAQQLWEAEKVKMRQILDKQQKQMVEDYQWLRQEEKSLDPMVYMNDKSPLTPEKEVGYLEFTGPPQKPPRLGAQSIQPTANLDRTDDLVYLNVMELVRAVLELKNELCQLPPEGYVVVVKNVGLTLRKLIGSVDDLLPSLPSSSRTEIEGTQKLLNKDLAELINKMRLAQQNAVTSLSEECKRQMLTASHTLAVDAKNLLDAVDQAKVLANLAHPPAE
Chain of SGK2(h) (Q9HBY8 whole entry): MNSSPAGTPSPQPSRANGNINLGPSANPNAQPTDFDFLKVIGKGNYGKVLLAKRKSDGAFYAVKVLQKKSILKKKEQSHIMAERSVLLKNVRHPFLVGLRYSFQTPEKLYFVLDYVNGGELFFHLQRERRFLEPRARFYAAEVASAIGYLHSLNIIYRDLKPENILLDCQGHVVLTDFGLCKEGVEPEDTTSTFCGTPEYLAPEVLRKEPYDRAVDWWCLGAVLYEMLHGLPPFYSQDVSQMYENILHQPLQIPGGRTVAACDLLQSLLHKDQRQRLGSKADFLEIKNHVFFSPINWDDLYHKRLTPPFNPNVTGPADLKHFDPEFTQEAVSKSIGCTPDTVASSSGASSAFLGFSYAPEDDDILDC
Chain of PKCη(h) (P24723 whole entry): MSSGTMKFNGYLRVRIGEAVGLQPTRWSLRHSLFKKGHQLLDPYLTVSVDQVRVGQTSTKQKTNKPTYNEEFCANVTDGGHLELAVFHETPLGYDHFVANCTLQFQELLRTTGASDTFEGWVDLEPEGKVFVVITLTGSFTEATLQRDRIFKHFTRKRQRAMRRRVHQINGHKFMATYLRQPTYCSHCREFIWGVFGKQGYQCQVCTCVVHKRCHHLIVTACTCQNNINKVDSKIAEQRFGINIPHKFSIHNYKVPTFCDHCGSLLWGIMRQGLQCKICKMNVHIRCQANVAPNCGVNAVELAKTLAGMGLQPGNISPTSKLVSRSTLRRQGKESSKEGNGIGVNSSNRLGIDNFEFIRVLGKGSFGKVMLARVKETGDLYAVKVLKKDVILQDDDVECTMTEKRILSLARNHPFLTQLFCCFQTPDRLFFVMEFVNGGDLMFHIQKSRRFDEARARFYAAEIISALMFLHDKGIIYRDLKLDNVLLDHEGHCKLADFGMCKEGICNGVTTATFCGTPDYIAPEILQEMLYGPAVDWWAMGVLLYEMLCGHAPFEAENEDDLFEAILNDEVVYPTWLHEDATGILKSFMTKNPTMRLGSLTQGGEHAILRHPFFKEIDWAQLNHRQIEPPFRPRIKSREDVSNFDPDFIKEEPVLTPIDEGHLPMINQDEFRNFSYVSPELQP
Chain of MSSK1(h) (Q9UPE1 whole entry): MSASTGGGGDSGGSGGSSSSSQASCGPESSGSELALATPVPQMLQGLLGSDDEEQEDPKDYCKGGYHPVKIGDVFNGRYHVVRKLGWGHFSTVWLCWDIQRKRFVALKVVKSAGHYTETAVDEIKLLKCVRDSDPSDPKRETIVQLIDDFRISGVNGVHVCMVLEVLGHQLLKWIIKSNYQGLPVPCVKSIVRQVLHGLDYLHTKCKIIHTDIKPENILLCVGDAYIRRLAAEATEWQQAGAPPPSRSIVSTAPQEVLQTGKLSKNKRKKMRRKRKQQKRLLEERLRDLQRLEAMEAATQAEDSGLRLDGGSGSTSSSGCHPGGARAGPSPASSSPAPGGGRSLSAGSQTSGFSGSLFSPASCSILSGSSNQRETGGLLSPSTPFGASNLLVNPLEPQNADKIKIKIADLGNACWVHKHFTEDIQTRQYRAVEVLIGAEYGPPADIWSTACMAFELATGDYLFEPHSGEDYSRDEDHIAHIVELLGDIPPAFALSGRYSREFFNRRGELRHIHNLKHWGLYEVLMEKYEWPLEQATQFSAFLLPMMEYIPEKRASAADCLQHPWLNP
Chain of Lck(h) activated (P06239 whole entry): as the sequence (P06239 whole entry) above
Chain of Ret (V804L)(h) (P07949 29-1114 V804L): as the sequence (P07949 29-1114) above, with V776L counted along it

Cc1ccc(NC(=O)c2cccc(C(F)(F)F)c2)cc1C#Cc1nn(C2CCN(C)CC2)c2ncnc(N)c12 [Compound 31]
IC50 (PC-3): 3970 nM

Cc1ccc(NC(=O)c2ccc(C)c(C(F)(F)F)c2)cc1C#Cc1nn([C@H]2CC[C@H](O)CC2)c2ncnc(N)c12 [Compound 93]
remaining activity at 10 µM (Lck; Lck(h), 10 μM, read-out: The percentage of the remaining active protein): 0%
IC50 (Lck; Lck, ATP at Km): 14 nM
remaining activity at 10 µM (Pyk2): 5%
remaining activity at 10 µM (Ret; Ret(h), 10 μM, read-out: The percentage of the remaining active protein): 2%
IC50 (Ret; Ret, ATP at Km): 4 nM
remaining activity at 10 µM (EphA5): -1%
remaining activity at 10 µM (EphA7): 0%
remaining activity at 10 µM (FGFR3): 3%
remaining activity at 10 µM (Rse): 2%
remaining activity at 10 µM (ASK1(h)): 127%
remaining activity at 10 µM (CDK1/cyclinB(h)): 104%
remaining activity at 10 µM (CDK4/cyclinD3(h)): 86%
remaining activity at 10 µM (CK1δ(h)): 88%
remaining activity at 10 µM (cKit(V654A)(h)): 7%
remaining activity at 10 µM (HIPK2(h)): 99%
remaining activity at 10 µM (IR(h)): 97%
remaining activity at 10 µM (IR(h), activated): 89%
remaining activity at 10 µM (IRAK4(h)): 101%
remaining activity at 10 µM (JNK2α2(h)): 13%
remaining activity at 10 µM (Lck(h) activated): 0%
remaining activity at 10 µM (Met(M1268T)(h)): 136%
remaining activity at 10 µM (Met(Y1248H)(h)): 123%
remaining activity at 10 µM (MSK2(h)): 70%
remaining activity at 10 µM (MSSK1(h)): 56%
remaining activity at 10 µM (PEK(h)): 39%
remaining activity at 10 µM (PKCβII(h)): 99%
remaining activity at 10 µM (PKCη(h)): 72%
remaining activity at 10 µM (Ret (V804L)(h)): 1%
remaining activity at 10 µM (Rsk3(h)): 38%
remaining activity at 10 µM (SGK2(h)): 97%
remaining activity at 10 µM (Snk(h)): 109%
remaining activity at 10 µM (WNK3(h)): 39%
remaining activity at 10 µM (ATM(h)): 102%
remaining activity at 10 µM [1]: 94%
remaining activity at 10 µM [2]: 92%
